From ChEMBL document CHEMBL3885881, “DrugMatrix”

Species on record: Rattus norvegicus
Assay: DrugMatrix - Regimen: Daily Repeat
Type: toxicity, organism-based, Sprague-Dawley
Set-up: regimen Daily Repeat, gender Male, age 6-8 weeks
Conditions: in vivo, sc, […], route mini-PUMP - SUBCUTANEOUS, dose 4.2 mg/Kg, vehicle 100 % SALINE; for ABSOLUTE EOSINOPHIL / ABSOLUTE LYMPHOCYTE / ABSOLUTE MONOCYTE / ABSOLUTE SEGMENTED NEUTROPHIL / BASOPHIL / EOSINOPHIL / ERYTHROCYTE COUNT / HEMATOCRIT / HEMOGLOBIN / LEUKOCYTE COUNT / LYMPHOCYTE / MEAN CORPUSCULAR HEMOGLOBIN / MEAN CORPUSCULAR HEMOGLOBIN CONCENTRATION / MEAN CORPUSCULAR VOLUME / MONOCYTE / NEUTROPHIL / NUCLEATED RED BLOOD CELLS / PLATELET COUNT / ABSOLUTE BASOPHIL: tissue Blood; for ALANINE AMINOTRANSFERASE / ALBUMIN / ALKALINE PHOSPHATASE / ASPARTATE AMINOTRANSFERASE / BLOOD UREA NITROGEN / CARBON DIOXIDE / CHLORIDE / CHOLESTEROL / CREATININE / GLUCOSE / LACTATE DEHYDROGENASE / LIPASE / PHOSPHORUS / POTASSIUM / SODIUM / TOTAL BILIRUBIN / TOTAL PROTEIN / URIC ACID: tissue Plasma
[1] = 72 h, dose level M1, time 3 day
[2] = 120 h, dose level M1, time 5 day

## CC(C)NCC(O)c1ccc(O)c(O)c1 (stereo not given) [ISOPROTERENOL]
[1]
  ABSOLUTE EOSINOPHIL: 46 CELLS/uL
  ABSOLUTE LYMPHOCYTE: 13359 CELLS/uL
  ABSOLUTE MONOCYTE: 389.67 CELLS/uL
  ABSOLUTE SEGMENTED NEUTROPHIL: 972 CELLS/uL
  BASOPHIL: 0%
  EOSINOPHIL: 0.33%
  ERYTHROCYTE COUNT: 5.5 x10E6/uL
  HEMATOCRIT: 32.97%
  HEMOGLOBIN: 12.13 G/DL
  LEUKOCYTE COUNT: 14.77 x10E3/uL
  LYMPHOCYTE: 90.33%
  MEAN CORPUSCULAR HEMOGLOBIN: 22.1 pg
  MEAN CORPUSCULAR HEMOGLOBIN CONCENTRATION: 36.8 G/DL
  MEAN CORPUSCULAR VOLUME: 60.03 fL
  MONOCYTE: 2.67%
  NEUTROPHIL: 6.67%
  NUCLEATED RED BLOOD CELLS: 0.33 /100WBC
  PLATELET COUNT: 1142.67 x10E3/uL
  ALANINE AMINOTRANSFERASE: 50.67 u/L
  ALBUMIN: 3.93 G/DL
  ALKALINE PHOSPHATASE: 337 u/L
  ASPARTATE AMINOTRANSFERASE: 73.67 u/L
  BLOOD UREA NITROGEN: 13.33 mg/dL
  CARBON DIOXIDE: 25.33 mmol/L
  CHLORIDE: 103.67 MEQ/L
  CHOLESTEROL: 77.33 mg/dL
  CREATININE: 0.18 mg/dL
  GLUCOSE: 140.33 mg/dL
  LACTATE DEHYDROGENASE: 151 u/L
  LIPASE: 9 u/L
  PHOSPHORUS: 10.17 mg/dL
  POTASSIUM: 7.09 MEQ/L
  SODIUM: 146.4 MEQ/L
  TOTAL BILIRUBIN: 0.2 mg/dL
  TOTAL PROTEIN: 5.9 G/DL
  URIC ACID: 2.33 mg/dL
[2]
  ABSOLUTE BASOPHIL: 0 CELLS/uL
  ABSOLUTE EOSINOPHIL: 84 CELLS/uL
  ABSOLUTE LYMPHOCYTE: 11630 CELLS/uL
  ABSOLUTE MONOCYTE: 485 CELLS/uL
  ABSOLUTE SEGMENTED NEUTROPHIL: 2701 CELLS/uL
  BASOPHIL: 0%
  EOSINOPHIL: 0.5%
  ERYTHROCYTE COUNT: 5.61 x10E6/uL
  HEMATOCRIT: 34.6%
  HEMOGLOBIN: 12.85 G/DL
  LEUKOCYTE COUNT: 14.9 x10E3/uL
  LYMPHOCYTE: 78.5%
  MEAN CORPUSCULAR HEMOGLOBIN: 22.95 pg
  MEAN CORPUSCULAR HEMOGLOBIN CONCENTRATION: 37.15 G/DL
  MEAN CORPUSCULAR VOLUME: 61.75 fL
  MONOCYTE: 3%
  NEUTROPHIL: 18%
  NUCLEATED RED BLOOD CELLS: 0.5 /100WBC
  PLATELET COUNT: 1202 x10E3/uL
  ALANINE AMINOTRANSFERASE: 57 u/L
  ALBUMIN: 4.05 G/DL
  ALKALINE PHOSPHATASE: 244.5 u/L
  ASPARTATE AMINOTRANSFERASE: 74 u/L
  BLOOD UREA NITROGEN: 11.5 mg/dL
  CARBON DIOXIDE: 27 mmol/L
  CHLORIDE: 104.5 MEQ/L
  CHOLESTEROL: 70 mg/dL
  CREATININE: 0.15 mg/dL
  GLUCOSE: 152 mg/dL
  LACTATE DEHYDROGENASE: 156 u/L
  LIPASE: 8.5 u/L
  PHOSPHORUS: 13.1 mg/dL
  POTASSIUM: 6.73 MEQ/L
  SODIUM: 149.4 MEQ/L
  TOTAL BILIRUBIN: 0.15 mg/dL
  TOTAL PROTEIN: 5.9 G/DL
  URIC ACID: 2.25 mg/dL
Dose level M1, time 14 day
  ABSOLUTE BASOPHIL: 0 CELLS/uL
  ABSOLUTE EOSINOPHIL: 0 CELLS/uL
  ABSOLUTE LYMPHOCYTE: 12693.75 CELLS/uL
  ABSOLUTE MONOCYTE: 445.5 CELLS/uL
  ABSOLUTE SEGMENTED NEUTROPHIL: 2010.75 CELLS/uL
  BASOPHIL: 0%
  EOSINOPHIL: 0%
  ERYTHROCYTE COUNT: 5.78 x10E6/uL
  HEMATOCRIT: 35.65%
  HEMOGLOBIN: 12.93 G/DL
  LEUKOCYTE COUNT: 15.15 x10E3/uL
  LYMPHOCYTE: 83.25%
  MEAN CORPUSCULAR HEMOGLOBIN: 22.38 pg
  MEAN CORPUSCULAR HEMOGLOBIN CONCENTRATION: 36.27 G/DL
  MEAN CORPUSCULAR VOLUME: 61.73 fL
  MONOCYTE: 3.25%
  NEUTROPHIL: 13.5%
  NUCLEATED RED BLOOD CELLS: 0 /100WBC
  PLATELET COUNT: 856.5 x10E3/uL
  ALANINE AMINOTRANSFERASE: 62.75 u/L
  ALBUMIN: 4.12 G/DL
  ALKALINE PHOSPHATASE: 336 u/L
  ASPARTATE AMINOTRANSFERASE: 83.25 u/L
  BLOOD UREA NITROGEN: 16.5 mg/dL
  CARBON DIOXIDE: 32 mmol/L
  CHLORIDE: 100.75 MEQ/L
  CHOLESTEROL: 75.75 mg/dL
  CREATININE: 0.21 mg/dL
  GLUCOSE: 144 mg/dL
  LACTATE DEHYDROGENASE: 122.25 u/L
  LIPASE: 8.75 u/L
  PHOSPHORUS: 13.35 mg/dL
  POTASSIUM: 7.05 MEQ/L
  SODIUM: 145.78 MEQ/L
  TOTAL BILIRUBIN: 0.1 mg/dL
  TOTAL PROTEIN: 6.1 G/DL
  URIC ACID: 1.88 mg/dL
